Experimental data published in patent US20160257697A1, “THIOPHENE-SUBSTITUTED TETRACYCLIC COMPOUNDS AND METHODS OFUSE THEREOF FOR THE TREATMENT OF VIRAL DISEASES” (priority 2013, published 2016).
pIC50: −log10 of the molar value. Read-outs that look alike come from different tables or passages of the source.

Key:
Experiment in all cases: microbe, parasite or virus in culture
Format in all cases: cell-based, Hepatitis C virus (HCV)
Settings in all cases: Replicon Assay A
[1] = test system: HCV replicon 1AY93H
Procedure, shortened: (§1)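 Cells seeded 2000/well + compound; 0.5% DMSO, 5% FBS; harvest day 3, lyse. Multiplex TaqMan RT-PCR for replicon (Neo probe) and cyclophilin RNA; amounts from Ct vs log(ng) linear regression of replicon total RNA standards.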

[2] = test system: HCV replicon 1A
Procedure, shortened: as §1

[3] = test system: HCV replicon 2B
Procedure, shortened: as §1

[4] = read-out: 1A Y93H IC50, HCV replicon 1A Y93H
[5] = read-out: 2B IC50, HCV replicon 2B
[6] = Hepatitis C virus, read-out: 1A Y93H IC50, HCV replicon 1A Y93H
[7] = Hepatitis C virus, HCV replicon 1A
[8] = Hepatitis C virus, read-out: 2B IC50, HCV replicon 2B
[9] = read-out: 1A Y93H IC50, replicon 1AY93H

| SMILES | pIC50 [1, 4] | pIC50 ([2]; HCV replicon 1A) | pIC50 [3, 5] | pIC50 [1, 9] | pIC50 ([2]; replicon 1A) | pIC50 ([3]; read-out: 2B IC50, replicon 2B) | also measured |
| --- | --- | --- | --- | --- | --- | --- | --- |
| COC(=O)N[C@H](C(=O)N1CCC[C@H]1c1ncc(-c2ccc3c(c2)OC(c2cc4sccc4s2)n2c-3cc3cc(-c4c[nH]c([C@@H]5C[C@H]6C[C@H]6N5C(=O)[C@@H](NC(=O)OC)C(C)C)n4)ccc32)[nH]1)C(C)C (single isomer, unassigned) [Compound 717] | 9.70 | 10.62 | 8.94 | – | – | – | – |
| CCN(CC)[C@@H](C(=O)N1C[C@H](F)C[C@H]1c1nc(-c2ccc3c(c2)cc2n3C(c3cc(C)c(C)s3)Oc3cc(-c4c[nH]c([C@@H]5C[C@@H](F)CN5C(=O)[C@@H](NC(=O)OC)C(C)C)n4)ccc3-2)c[nH]1)c1ccccc1 (mixture of isomers) [Compound 724] | – | – | – | – | – | – | pIC50 [1, 6]: 9.43; pIC50 [2, 7]: 10.20; pIC50 [3, 8]: 7.82 |
| COC(=O)NC(C(=O)N1CCC[C@H]1c1ncc(-c2ccc3c(c2)cc2n3C(c3ccc(F)s3)Oc3cc(-c4cnc([C@@H]5CCCN5C(=O)[C@@H](NC(=O)OC)C(C)C)[nH]4)cc(F)c3-2)[nH]1)C1C[C@@H](C)O[C@@H](C)C1 (single isomer, unassigned) [Compound 349] | – | – | – | 9.57 | 11.85 | 9.41 | – |
| CCc1ccc(C2Oc3cc(-c4cnc([C@@H]5CCCN5C(=O)[C@@H](NC(=O)OC)C(C)C)[nH]4)cc(F)c3-c3cc4cc(-c5cnc([C@@H]6C[C@H]7C[C@H]7N6C(=O)C(NC(=O)OC)C6CCOC(C)(C)C6)[nH]5)ccc4n32)s1 (single isomer, unassigned) [Compound 203] | – | – | – | 9.92 | 11.80 | 9.08 | – |
| COC(=O)N[C@H](C(=O)N1CCC[C@H]1c1nc(-c2ccc3c(c2)OC(c2ccc(C)s2)n2c-3cc3cc(-c4c[nH]c([C@@H]5NCCN5C(=O)[C@@H](NC(=O)OC)C(C)C)n4)ccc32)c[nH]1)C(C)C (single isomer, unassigned) [Compound 702] | 8.41 | 11.13 | 8.40 | – | – | – | – |
| COC(=O)NC(C(=O)N1CCC[C@H]1c1ncc(-c2ccc3c(c2)cc2n3C(c3ccc(C4CC4)s3)Oc3cc(-c4cnc([C@@H]5CCCN5C(=O)[C@@H](NC(=O)OC)C(C)C)[nH]4)cc(F)c3-2)[nH]1)C1CN(C(=O)OC)C1 (single isomer, unassigned) [Compound 227] | – | – | – | 9.82 | 11.72 | 9.77 | – |
| COC(=O)N[C@H](C(=O)N1CCC[C@H]1c1nc(-c2cc(F)c3c(c2)OC(c2ccc(C4CC4)s2)n2c-3cc3cc(-c4c[nH]c([C@@H]5C[C@H]6C[C@H]6N5C(=O)[C@@H](NC(=O)OC)C(C)C)n4)ccc32)c[nH]1)C(C)C (single isomer, unassigned) [Compound 719] | 10.49 | 11.00 | 10.44 | – | – | – | – |
| COC(=O)NC(C(=O)N1CCC[C@H]1c1ncc(-c2cc(F)c3c(c2)OC(c2ccc(C4CCC4)s2)n2c-3cc3cc(-c4cnc([C@@H]5CCCN5C(=O)[C@@H](NC(=O)OC)C5CCOCC5)[nH]4)ccc32)[nH]1)C(C)(C)F (single isomer, unassigned) [Compound 249] | – | – | – | 8.93 | 10.64 | 8.30 | – |
| COC(=O)N[C@H](C(=O)N1CCC[C@H]1c1ncc(-c2cc(C)c3c(c2)OC(c2ccc(C4CC4)s2)n2c-3cc3cc(-c4cnc([C@@H]5CCCN5C(=O)[C@@H](NC(=O)OC)C(C)C)[nH]4)ccc32)[nH]1)C(C)C (single isomer, unassigned) [Compound 752] | 8.57 | 11.55 | 9.22 | – | – | – | – |
| COC(=O)N[C@H](C(=O)N1CCC[C@H]1c1ncc(-c2ccc3c(c2)OC(c2ccc(C4CC4)s2)n2c-3c(F)c3cc(-c4cnc([C@@H]5C[C@H]6C[C@H]6N5C(=O)[C@@H](NC(=O)OC)C(C)C)[nH]4)ccc32)[nH]1)C(C)C (single isomer, unassigned) [Compound 612] | 9.33 | 11.80 | 8.66 | – | – | – | – |
| CCc1ccc(C2Oc3cc(-c4cnc([C@@H]5CCCN5C(=O)[C@@H](NC(=O)OC)C(C)C)[nH]4)cc(F)c3-c3cc4cc(-c5cnc([C@@H]6C[C@@H](F)CN6C(=O)C(NC(=O)OC)C6CCOC(C)(C)C6)[nH]5)ccc4n32)s1 (single isomer, unassigned) [Compound 261] | – | – | – | 10.37 | 11.82 | 8.01 | – |
| CCOC(C)[C@H](NC(=O)OC)C(=O)N1CCC[C@H]1c1ncc(-c2cc(F)c3c(c2)OC(c2cc(C)c(C)s2)n2c-3cc3cc(-c4cnc([C@@H]5CCCN5C(=O)[C@@H](NC(=O)OC)C(C)C)[nH]4)ccc32)[nH]1 (single isomer, unassigned) [Compound 80] | – | – | – | 8.31 | 11.57 | 8.50 | – |
| COC(=O)N[C@H](C(=O)N1CCC[C@H]1c1ncc(-c2cc(F)c3c(c2)OC(c2ccc(C#CC4CC4)s2)n2c-3cc3cc(-c4cnc([C@@H]5CCCN5C(=O)[C@@H](NC(=O)OC)C(C)C)[nH]4)ccc32)[nH]1)C(C)C (single isomer, unassigned) [Compound 85] | – | – | – | 9.39 | – | 9.00 | pIC50 ([2]; Hepatitis C virus, replicon 1A): 11.96 |
| COC(=O)N[C@H](C(=O)N1CCC[C@H]1c1cnc(-c2ccc3c(c2)cc2n3C(c3cc4ccccc4s3)Oc3cc(-c4cnc([C@@H]5CCCN5C(=O)[C@@H](NC(=O)OC)C5CCOCC5)[nH]4)ccc3-2)[nH]1)C1CCOCC1 (single isomer, unassigned) [Compound 811] | 10.24 | 10.38 | 9.18 | – | – | – | – |
| CCc1ccc(C2Oc3cc(-c4cnc([C@@H]5CCCN5C(=O)C(NC(=O)OC)C5CCOC(C)(C)C5)[nH]4)cc(F)c3-c3cc4cc(-c5cnc([C@@H]6CCCN6C(=O)[C@@H](NC(=O)OC)C(C)C)[nH]5)ccc4n32)s1 (single isomer, unassigned) [Compound 160] | – | – | – | 7.60 | 9.94 | 7.72 | – |
| COC(=O)N[C@H](C(=O)N1CCC[C@H]1c1ncc(-c2cc(F)c3c(c2)OC(c2scc4c2OCCO4)n2c-3cc3cc(-c4cnc([C@@H]5C[C@H](F)CN5C(=O)[C@@H](NC(=O)OC)C(C)C)[nH]4)ccc32)[nH]1)C(C)C (single isomer, unassigned) [Compound 526] | – | – | – | – | – | – | pIC50 [1, 6]: 8.32; pIC50 [2, 7]: 11.11; pIC50 [3, 8]: 7.48 |
| COC(=O)N[C@H](C(=O)N1C[C@H](F)C[C@H]1c1ncc(-c2ccc3c(c2)OC(c2ccc(C4CC4)s2)n2c-3cc3cc(-c4cnc([C@@H]5C[C@@H](F)CN5C(=O)[C@@H](NC(=O)OC)C5CCOCC5)[nH]4)ccc32)[nH]1)C1CCOCC1 (mixture of isomers) [Compound 734] | – | – | – | – | – | – | pIC50 [1, 6]: 9.62; pIC50 [2, 7]: 9.38; pIC50 [3, 8]: 6.94 |
| COC(=O)N[C@H](C(=O)N1CCC[C@H]1c1ncc(-c2cc(F)c3c(c2)OC(c2sccc2C2CC2)n2c-3cc3cc(-c4cnc([C@@H]5CCCN5C(=O)[C@@H](NC(=O)OC)C(C)C)[nH]4)ccc32)[nH]1)C(C)C (single isomer, unassigned) [Compound 25] | – | – | – | – | – | – | IC50 ([1]; Hepatitis C virus, read-out: 1A Y93H IC50 (nM), replicon 1AY93H): 14.4 nM; pIC50 ([2]; Hepatitis C virus, replicon 1A): 11.37; IC50 ([3]; Hepatitis C virus, read-out: 2B IC50 (nM), replicon 2B): 15.1 nM |
| COC(=O)N[C@H](C(=O)N1CCC[C@H]1c1ncc(-c2ccc3c(c2)OC(c2cc(C)c(C)s2)n2c-3cc3cc(-c4cnc([C@@H]5C[C@H]6C[C@H]6N5C(=O)[C@@H](NC(=O)OC)C(C)C)[nH]4)ccc32)[nH]1)C(C)C (single isomer, unassigned) [Compound 501] | 8.36 | 10.62 | 8.08 | – | – | – | – |
| COC(=O)N[C@H](C(=O)N1CCC[C@H]1c1ncc(-c2cc(F)c3c(c2)OC(c2cc(C)sc2C)n2c-3cc3cc(-c4cnc([C@@H]5CCCN5C(=O)[C@@H](NC(=O)OC)C(C)C)[nH]4)ccc32)[nH]1)C(C)C (single isomer, unassigned) [Compound 320] | – | – | – | 8.26 | 11.96 | 8.29 | – |
| COC(=O)NC(C(=O)N1CCCC1c1ncc(-c2cc(F)c3c(c2)OC(c2ccc(CC(C)(C)OC)s2)n2c-3cc3cc(-c4cnc(C5CCCN5C(=O)C(NC(=O)OC)C5CCOC(C)(C)C5)[nH]4)ccc32)[nH]1)C(C)C (single isomer, unassigned) [Compound 850] | – | 11.55 | – | – | – | – | pIC50 ([1]; HCV replicon 1A Y93H, read-out: 1A Y93H IC50): 9.07; pIC50 ([3]; HCV replicon 2B, read-out: 2B IC50): 9.43 |
| COC(=O)N[C@H](C(=O)N1CCC[C@H]1c1ncc(-c2cc(F)c3c(c2)OC(c2csc4ccccc24)n2c-3cc3cc(-c4cnc([C@@H]5CCCN5C(=O)[C@@H](NC(=O)OC)C(C)C)[nH]4)ccc32)[nH]1)C(C)C (single isomer, unassigned) [Compound 324] | – | – | – | 8.31 | 11.85 | 8.10 | – |
| CCc1ccc(C2Oc3cc(-c4c[nH]c([C@@H]5CCCN5C(=O)[C@@H](NC(=O)OC)C(C)C)n4)ccc3-c3cc4c(F)c(-c5c[nH]c([C@@H]6CCCN6C(=O)C(NC(=O)OC)C6C[C@@H](C)O[C@@H](C)C6)n5)ccc4n32)s1 (single isomer, unassigned) [Compound 360] | – | – | – | 8.45 | – | 8.60 | pIC50 ([2]; Hepatitis C virus, replicon 1A): 11.60 |
| COC(=O)N[C@H](C(=O)N1CCC[C@H]1c1nc(-c2cc(F)c3c(c2)OC(c2ccc(C4CC4)s2)n2c-3cc3cc(-c4c[nH]c([C@@H]5C[C@H]6C[C@H]6N5C(=O)[C@@H](NC(=O)OC)C(C)C)n4)ccc32)c[nH]1)C(C)C (single isomer, unassigned) [Compound 720] | 9.28 | 11.72 | 8.40 | – | – | – | – |
| COC(=O)NC(C(=O)N1CCC[C@H]1c1ncc(-c2cc(F)c3c(c2)OC(c2ccc(C4CC4)s2)n2c-3cc3cc(-c4cnc([C@@H]5CCCN5C(=O)[C@@H](NC(=O)OC)C5CCOCC5)[nH]4)ccc32)[nH]1)C(C)(C)F (single isomer, unassigned) [Compound 171] | – | – | – | 8.85 | 10.88 | 8.39 | – |
